Assay: Membrane fatty acid analysis in red blood cells (GC-MS) of UC patients given EPA-FFA
Assay type: in vivo, human
Procedure: A study will be conducted with patients having long-standing UC. Specifically, about 20 long-standing UC patients in stable clinical remission (SCCAI=0) and with fecal calprotectin (FC)>150 μg/g measured in stools are recruited and treated with 2 g/day of EPA-FFA for 90 days. Biopsies and biological samples are collected at the entry (TO) and at the end of the study (T3). Compliance is evaluated by EPA incorporation into red blood cell membranes. Protein levels of Jagged1, Hes1, STAT3, phospho-STAT3 and KLF-4 are determined by western blotting. IL-22, IL-10 and SOCS3 mRNA levels are analyzed by qRT-PCR. Goblet cells are stained by Alcian blue. Microbiota analyses are performed on fecal and biopsies DNA samples sequencing the V3-V4 region of the bacterial 16S rRNA gene. As a reference, a healthy adult population is used. Endoscopic and histologic disease activities are measured by Mayo and Geboes scores respectively.
Since EPA can be converted into the m-3 PUFA docosahexaenoic acid (DHA) in vivo through docosapentaenoic acid (DPA) (19), the overall ω-3 PUFAs content is also measured including EPA, DPA and DHA, in the patients.
Eligible patients are asymptomatic subjects aged 18-70 years with long-standing (≥8 years) UC, in stable clinical remission (simple clinical colitis activity index; SCCAI=0), and FC levels higher than 150 μg/g (53). Exclusion criteria are (1) recent use of steroids (<2 months) or other experimental drugs (<3 months); (2) concomitant use of anticoagulants; (3) probiotic use; (4) pregnancy or breast-feeding; (5) known or suspected hypersensitivity to eicosapentaenoic acid or ω-3 PUF As; and (6) severe co-morbidities. […] Adherence to EPA-FFA supplementation is evaluated both by capsule counting and assessing EPA incorporation into red blood cell (RBC) membranes. […]
Membrane fatty acids content is measured in RBCs. […] Extracted fatty acid methyl-esters are then analyzed by gas-chromatography mass-spectrometry (GC-MS). Fatty acid levels are expressed as relative percentages of total fatty acids.

[1] = short-term EPA-FFA supplementation, long-standing UC patients

EPA in RBC-purified membranes (UC patients, 2 g/day EPA-FFA for 90 days): significant increase
EPA and overall ω-3 PUFAs content (EPA, DPA and DHA) into RBCs [1]: increase
patients who incorporated EPA into RBCs [1]: 17/19
Compound: CC/C=C\C/C=C\C/C=C\C/C=C\C/C=C\CCCC(=O)O [EPA-FFA, eicosapentaenoic acid]
